{"source": "patent US11780852B2", "about": "“Methods for treating Crohn's disease using 3-((1R,3s,5S)-3-((7-((5-methyl-1H-pyrazol-3-yl)amino)-1,6-naphthyridin-5-yl)amino)-8-azabicyclo[3.2.1]octan-8-yl)propanenitrile” (priority 2015, dated 2023)", "data": [{"system": "oxazolone-induced colitis", "assay": "Mouse model of oxazolone-induced colitis", "type": "in vivo, BALB/C mice", "conditions": "PO, 1, 3, and/or 10 mg/kg BID (doses up to 10 mg/kg BID)", "method": "Assay 7: Mouse Model of Oxazalone-Induced Colitis\nOxazolone-induced colitis is an experimental model that has a histological resemblance to human ulcerative colitis (Heller et al. Immunology, 2002, 17, 629-638). Adult BALB/C mice from Harlan were used in the assay. On day 1, animals were lightly anesthetized with isoflurane and the hairs between the shoulder were carefully removed before oxazolone (4%, 150 μL, 4:1 acetone:olive oil formulation) or vehicle solution was slowly applied for skin sensitization. Seven days after skin sensitization, the mice were fasted overnight, anesthetized with isoflurane inhalation, and a 1 mL syringe equipped with a 3.5-F catheter, filled with oxazolone solution, was inserted carefully about 4 cm into the colon of the mouse. Following insertion, 50 μL of the oxazolone solution (1%, 1:1 ethanol:water formulation) was injected very slowly (over 30 sec using an injection pump) into the colon. The catheter was removed and the mice were held vertically (head down) for 2 min to ensure that the entire oxazolone solution remained inside the colon. Drug treatment (PO, BID or TID) or vehicle was initiated a day prior to the oxazolone intrarectal (IR) challenge. Two-day post oxazolone intrarectal challenge, the Disease Activity Index (DAI) was assessed by treatment-blinded experimenters for each mouse according to the criteria score: stool consistency score (0, normal; 2, loose; 4, diarrhea), gross bleeding score (0, absence; 2, blood tinged; 4, presence), and weight loss score (0, none; 1, 1%-5%; 2, 5%-10^%; 3, 10%-20%; 4, more than 20%); DAI=average of (stool consistency score+gross bleeding score+weight loss score).\nSelected compounds of the invention were tested in the assay. Efficacy in the model is evidenced by a decrease in DAI score as compared with the score from vehicle treated animals.", "values": [{"smiles": "Cc1cc(Nc2cc3ncccc3c(N[C@@H]3C[C@H]4CCC[C@@H](C3)N4CC(=O)N(C)C)n2)n[nH]1", "note": "[Example 1-38]", "DAI score as compared with vehicle treated animals": "statistically significant decrease"}, {"smiles": "Cc1cc(Nc2cc3ncccc3c(N[C@@H]3C[C@H]4CC[C@@H](C3)N4CCF)n2)n[nH]1", "note": "[Example 2, N^5-((1R,3s,5S)-8-(2-fluoroethyl)-8-azabicyclo[3.2.1]octan-3-yl)-N^7-(5-methyl-1H-pyrazol-3-yl)-1,6-naphthyridine-5,7-diamine]", "DAI score as compared with vehicle treated animals": "statistically significant decrease"}, {"smiles": "CCC(C)C(=O)N1C2CCC1CC(Nc1nc(Nc3cc(C)[nH]n3)cc3ncccc13)C2", "note": "(centres unmarked) [Example 2-6]", "DAI score as compared with vehicle treated animals": "did not exhibit a statistically significant decrease"}, {"smiles": "Cc1cc(Nc2cc3ncccc3c(NC3CC4CCCC(C3)N4C(=O)C(C)O)n2)n[nH]1", "note": "(centres unmarked) [Example 2-16]", "DAI score as compared with vehicle treated animals": "did not exhibit a statistically significant decrease"}, {"smiles": "CCOCC(=O)N1[C@@H]2CCC[C@H]1C[C@H](Nc1nc(Nc3cc(C)[nH]n3)cc3ncccc13)C2", "note": "[Example 2-17]", "DAI score as compared with vehicle treated animals": "did not exhibit a statistically significant decrease"}, {"smiles": "Cc1cc(Nc2cc3ncccc3c(N[C@@H]3C[C@H]4CCC[C@@H](C3)N4C(=O)C(C)(C)CO)n2)n[nH]1", "note": "[Example 2-22]", "DAI score as compared with vehicle treated animals": "did not exhibit a statistically significant decrease"}, {"smiles": "Cc1cc(Nc2cc3ncccc3c(N[C@@H]3C[C@H]4CCC[C@@H](C3)N4C(=O)Cc3ccccc3)n2)n[nH]1", "note": "[Example 2-24]", "DAI score as compared with vehicle treated animals": "did not exhibit a statistically significant decrease"}, {"smiles": "Cc1cc(Nc2cc3ncccc3c(N[C@@H]3C[C@H]4CC[C@@H](C3)N4S(=O)(=O)c3cccnc3)n2)n[nH]1", "note": "[Example 3, N^7-(5-methyl-H-pyrazol-3-yl)-N-((1R,3s,5S)-8-(pyridin-3-ylsulfonyl)-8-azabicyclo[3.2.1]octan-3-yl)-1,6-naphthyridine-5,7-diamine]", "DAI score as compared with vehicle treated animals": "statistically significant decrease"}, {"smiles": "Cc1cc(Nc2cc3ncccc3c(N[C@@H]3C[C@H]4CCC[C@@H](C3)N4C(=O)CN(C)C)n2)n[nH]1", "note": "[Example 4, 2-(Dimethylamino)-1-((1R,3s,5S)-3-((7-((5-methyl-1H-pyrazol-3-yl)amino)-1,6-naphthyridin-5-yl)amino)-9-azabicyclo[3.3.1]nonan-9-yl)ethan-1-one]", "DAI score as compared with vehicle treated animals": "statistically significant decrease"}, {"smiles": "Cc1cc(Nc2cc3ncccc3c(N[C@@H]3C[C@H]4CC[C@@H](C3)N4S(=O)(=O)CC(C)C)n2)n[nH]1", "note": "[Example 4-3]", "DAI score as compared with vehicle treated animals": "did not exhibit a statistically significant decrease"}, {"smiles": "Cc1cc(Nc2cc3ncccc3c(N[C@@H]3C[C@H]4CC[C@@H](C3)N4S(=O)(=O)C3CC3)n2)n[nH]1", "note": "[Example 4-4]", "DAI score as compared with vehicle treated animals": "did not exhibit a statistically significant decrease"}, {"smiles": "Cc1cc(Nc2cc3ncccc3c(N[C@@H]3C[C@H]4CC[C@@H](C3)N4S(=O)(=O)Cc3ccccc3)n2)n[nH]1", "note": "[Example 4-13]", "DAI score as compared with vehicle treated animals": "did not exhibit a statistically significant decrease"}, {"smiles": "Cc1cc(Nc2cc3ncccc3c(N[C@@H]3C[C@H]4CCC[C@@H](C3)N4S(=O)(=O)C3CC3)n2)n[nH]1", "note": "[Example 4-18]", "DAI score as compared with vehicle treated animals": "did not exhibit a statistically significant decrease"}, {"smiles": "COCCS(=O)(=O)N1[C@@H]2CCC[C@H]1C[C@H](Nc1nc(Nc3cc(C)[nH]n3)cc3ncccc13)C2", "note": "[Example 4-19]", "DAI score as compared with vehicle treated animals": "did not exhibit a statistically significant decrease"}, {"smiles": "Cc1cc(Nc2cc3ncccc3c(N[C@@H]3C[C@H]4CCC[C@@H](C3)N4S(=O)(=O)CC3CC3)n2)n[nH]1", "note": "[Example 4-23]", "DAI score as compared with vehicle treated animals": "did not exhibit a statistically significant decrease"}, {"smiles": "Cc1cc(Nc2cc3ncccc3c(N[C@@H]3C[C@H]4CC[C@@H](C3)N4C(=O)C(F)F)n2)n[nH]1", "note": "[Example 5, 2,2-difluoro-1-((1R,3s,5S)-3-((7-((5-methyl-1H-pyrazol-3-yl)amino)-1,6-naphthyridin-5-yl)amino)-8-azabicyclo[3.2.1]octan-8-yl)ethan-1-one]", "DAI score as compared with vehicle treated animals": "statistically significant decrease"}, {"smiles": "Cc1cc(Nc2cc3nc(CO)ccc3c(N[C@@H]3C[C@H]4CC[C@@H](C3)N4CCC#N)n2)n[nH]1", "note": "[Example 5-11]", "DAI score as compared with vehicle treated animals": "did not exhibit a statistically significant decrease"}, {"smiles": "COCCS(=O)(=O)N1[C@@H]2CC[C@H]1C[C@H](Nc1nc(Nc3cc(C)[nH]n3)cc3ncccc13)C2", "note": "[Example 6, N^5-((1R,3s,5S)-8-((2-methoxyethyl)sulfonyl)-8-azabicyclo[3.2.1]octan-3-yl)-N^7-(5-methyl-1H-pyrazol-3-yl)-1,6-naphthyridine-5,7-diamine]", "DAI score as compared with vehicle treated animals": "statistically significant decrease"}, {"smiles": "CCS(=O)(=O)N1[C@@H]2CC[C@H]1C[C@H](Nc1nc(Nc3cc(C)[nH]n3)cc3ncccc13)C2", "note": "[Example 7, N^5-((1R,3s,5S)-8-(ethylsulfonyl)-8-azabicyclo[3.2.1]octan-3-yl)-N^7-(5-methyl-1H-pyrazol-3-yl)-1,6-naphthyridine-5,7-diamine]", "DAI score as compared with vehicle treated animals": "did not exhibit a statistically significant decrease"}, {"smiles": "Cc1cc(Nc2cc3ncccc3c(N[C@@H]3C[C@H]4CCC[C@@H](C3)N4S(=O)(=O)c3ccccc3)n2)n[nH]1", "note": "[Example 9, N-(5-methyl-1H-pyrazol-3-yl)-N-((1R,3s,5S)-9-(phenylsulfonyl)-9-azabicyclo[3.3.1]nonan-3-yl)-1,6-naphthyridine-5,7-diamine]", "DAI score as compared with vehicle treated animals": "did not exhibit a statistically significant decrease"}, {"smiles": "Cc1cc(Nc2cc3ncccc3c(N[C@@H]3C[C@H]4CCC[C@@H](C3)N4S(=O)(=O)N3CC(C#N)C3)n2)n[nH]1", "note": "[Example 11, 1-(((1R,3s,5S)-3-((7-((5-methyl-1H-pyrazol-3-yl)amino)-1,6-naphthyridin-5-yl)amino)-9-azabicyclo[3.3.1]nonan-9-yl)sulfonyl)azetidine-3-carbonitrile]", "DAI score as compared with vehicle treated animals": "did not exhibit a statistically significant decrease"}, {"smiles": "Cc1cc(Nc2cc3ncccc3c(N[C@@H]3C[C@H]4CC[C@@H](C3)N4S(=O)(=O)N3CC(C#N)C3)n2)n[nH]1", "note": "[Example 13, 1-(((1R,3s,5S)-3-((7-((5-methyl-1H-pyrazol-3-yl)amino)-1,6-naphthyridin-5-yl)amino)-8-azabicyclo[3.2.1]octan-8-yl)sulfonyl)azetidine-3-carbonitrile]", "DAI score as compared with vehicle treated animals": "did not exhibit a statistically significant decrease"}]}, {"system": "IL-4 induced STAT6 phosphorylation in THP-1 human monocytic cells", "assay": "not given", "conditions": "not given", "values": [{"smiles": "Cc1cc(Nc2cc3ncccc3c(N[C@@H]3C[C@H]4CC[C@@H](C3)N4Cc3ccc(O)cc3)n2)n[nH]1", "note": "[Example 1-18]", "THP-1 IL4 pIC50": "C (key: A represents a pEC50 value ≥7.5 (EC50≤32 nM); B represents a pEC50 value between 6.7 and 7.5 (EC50 between 200 nM and 32 nM); C represents a pEC50 value <6.7 (EC50>200 nM))"}, {"smiles": "Cc1cc(Nc2cc3ncccc3c(N[C@@H]3C[C@H]4CC[C@@H](C3)N4C3CCCOC3=O)n2)n[nH]1", "note": "(some centres unmarked) [Example 1-28]", "THP-1 IL4 pIC50": "C (key: A represents a pEC50 value ≥7.5 (EC50≤32 nM); B represents a pEC50 value between 6.7 and 7.5 (EC50 between 200 nM and 32 nM); C represents a pEC50 value <6.7 (EC50>200 nM))"}, {"smiles": "Cc1cc(Nc2cc3ncccc3c(N[C@@H]3C[C@H]4CC[C@@H](C3)N4CC3COC(=O)O3)n2)n[nH]1", "note": "(some centres unmarked) [Example 1-30]", "THP-1 IL4 pIC50": "B (key: A represents a pEC50 value ≥7.5 (EC50≤32 nM); B represents a pEC50 value between 6.7 and 7.5 (EC50 between 200 nM and 32 nM); C represents a pEC50 value <6.7 (EC50>200 nM))"}, {"smiles": "Cc1cc(Nc2cc3ncccc3c(N[C@@H]3C[C@H]4CC[C@@H](C3)N4C(=O)c3ccccc3)n2)n[nH]1", "note": "[Example 2-12]", "THP-1 IL4 pIC50": "B (key: A represents a pEC50 value ≥7.5 (EC50≤32 nM); B represents a pEC50 value between 6.7 and 7.5 (EC50 between 200 nM and 32 nM); C represents a pEC50 value <6.7 (EC50>200 nM))"}, {"smiles": "Cc1cc(Nc2cc3ncccc3c(N[C@@H]3C[C@H]4CC[C@@H](C3)N4C(=O)c3ccncc3)n2)n[nH]1", "note": "[Example 2-13]", "THP-1 IL4 pIC50": "B (key: A represents a pEC50 value ≥7.5 (EC50≤32 nM); B represents a pEC50 value between 6.7 and 7.5 (EC50 between 200 nM and 32 nM); C represents a pEC50 value <6.7 (EC50>200 nM))"}]}, {"system": "IL-4 induced STAT6 phosphorylation in THP-1 human monocytic cells", "assay": "not given", "conditions": "THP-1 cells, IL-4 induced STAT6 phosphorylation", "values": [{"smiles": "Cc1cc(Nc2cc3ncccc3c(N[C@H]3C[C@H]4CCC[C@@H](C3)N4C3CCOC3=O)n2)n[nH]1", "note": "(some centres unmarked) [Example 1-52]", "THP-1 IL4 pIC50": "B (B represents a pEC50 value between 6.7 and 7.5 (EC50 between 200 nM and 32 nM))"}, {"smiles": "COC(=O)C1(C(=O)N2[C@@H]3CC[C@H]2C[C@H](Nc2nc(Nc4cc(C)[nH]n4)cc4ncccc24)C3)CC1", "note": "[Example 2-9]", "THP-1 IL4 pIC50": "C (C represents a pEC50 value <6.7 (EC50>200 nM))"}]}]}
